Laboratory results taken from publication PMC9410094 (Marine Drugs, 2022).
In brackets after ≈: the same amount, converted by molar mass. Positions of bridges follow the written chain, without caps; N, C: chain ends. Residues, ends and D or L forms follow the SMILES beside them.

What was measured:
[1] = test system: P. aeruginosa PAO1 mature biofilms; experiment: Effect on mature biofilms, viability by MTT; conditions: P. aeruginosa PAO1 pre-formed biofilm, 16 µM, 2-h exposure
Method: Biofilm viability was measured by tetrazolium salt reduction (right panel). Values are presented as means ± the standard deviation (SD) of three independent experiments.
The effect of peptides on pre-formed biofilms was evaluated as follows. Biofilms were grown on a 96-well plate at 32 °C for 24 h and stirred at 120 rpm to ensure biofilm formation primarily on the wall of the wells. […] Bacterial survival in the biofilms after 2-h exposure was evaluated via a MTT assay after incubation with a tested peptide. Then, wells were rinsed with sterile water, treated with an MTT solution (Sigma, Kawasaki, Kanagawa, Japan) in PBS, and incubated for 4 h at 37 °C. Next, the medium was removed. The resulting formazan crystals were dissolved in a mixture of EtOH and DMSO (1:1) for 10 min. The optical density of the solution was measured at 570 nm. Bacterial survival was calculated as percent relative to samples without antimicrobial agent. All data were obtained from at least three independent experiments in 3 repetitions.

[2] = test system: E. coli ATCC 25922; experiment: Mice septicemia model, survival; conditions: BALB/c mice, n = 8, E. coli ATCC 25922 i.p. with 2.5% mucin; peptide i.p. 10 mg/kg at 1 and 4 h post-infection; 7 days
Method: Ciprofloxacin (the single dose of 10 mg/kg) and saline were used as the positive and negative controls, respectively. […] Mice were controlled once daily for their health status during 7 post-infection days.
Then, we examined an efficacy of AMPs in the mice septicemia model using 8 animals in a group (Figure 10B).
Experiments were performed with female 8–10-week-old BALB/c mice (22–24 g, “Andreevka” laboratory animal nursery FMBA, Russia). […] All animal experiments were performed at the State Research Center for Applied Microbiology and Biotechnology (SRCAMB) in Obolensk, Russia. The animals were housed in groups of 5 in polycarbonate cages. Food and water were provided ad libitum.
A total of 4 groups with 8 animals were used. The first group received ciprofloxacin (Sigma, Kawasaki, Kanagawa, Japan) administered i.p. once (1 h post-infection) at a dose of 10 mg/kg. The second group received saline (as a vehicle control) administered i.p. once (1 h post-infection). […] Survival was monitored for 7 days. After that survived animals were euthanized by CO2 asphyxiation.

[3] = test system: Gram-positive bacteria; type: cell-based; conditions: 24 h
Method: (§1) The antimicrobial activity of the peptides was determined via the method of two-fold serial dilutions in sterile 96-well flat-bottom polystyrene microplates (Eppendorf #0030730011) in Mueller–Hinton broth (MHB, Sigma, Kawasaki, Kanagawa, Japan) supplemented with 0.9% NaCl. Bacterial cultures were grown in MHB at 37 °C until the culture reached an optical density OD600 of 1.0 and diluted with the broth so that to reach a final cell concentration of 10^6 CFU/mL. Then 50 μL of the test culture were added to 50 μL of aqueous solutions of the peptides, previously diluted in 0.1% sterilized bovine serum albumin (BSA) to reduce non-specific binding of the peptides to the surface of the plates. Next, the plate was incubated for 24 h at 37 °C and 950 rpm on the plate thermoshaker (Biosan). The values of the minimum inhibitory concentrations (MIC) were determined as the minimum concentration of the peptide, at which there is no culture growth. The results were expressed as the median values of three independent experiments performed in triplicate.

[4] = test system: E. coli 3421/E19; experiment: Neutropenic mice peritonitis model; type: in vivo, BALB/c mice; conditions: for Bacterial burden in mice blood (in words) / Reduction of the CFU level in peritoneal fluid (PF): neutropenic BALB/c mice, CFU 5 h after treatment; for Bacterial burden in mice blood (in words): n = 5, i.p. infection, single i.v. dose 1 h post-infection (AMPs 10 mg/kg, polymyxin B 5 mg/kg); for Reduction of the CFU level in peritoneal fluid (PF): n = 5, single i.v. dose (AMPs 10 mg/kg, polymyxin B 5 mg/kg)
Method: Immune-deficient mice were inoculated intraperitoneally (i.p.) with bacterial suspension. Antimicrobial agent was administered 1 h post-infection, and colony counts in blood and peritoneal fluid (PF) were determined 5 h later.
(A) The mice peritonitis model. […] Horizontal bars indicate means ± SD.
Food and water were provided ad libitum.
CFU counts were determined from blood and peritoneal fluid (PF) 5 h after treatment. The mice were euthanized by CO2 asphyxiation and blood was collected by axillary cut down. A total of 2 mL sterile saline was injected i.p. and the abdomen gently massaged before it was opened, fluid sampled with a pipette, serially diluted and placed on Endo agar supplemented with 20 µg/mL of tetracycline for CFU identification.

[5] = test system: P. aeruginosa PAO1; experiment: Inhibition of biofilm formation, crystal violet; type: cell-based; conditions: 24 h, LB, 32 °C
From the text: Such an adaptive and survival mechanism is mediated by biofilms, which constitutes the community of sessile bacteria embedded within the self-produced extracellular polymeric substance (EPS) that defends them from chemical, biological, and physical stress; it also […] foreign invaders. Besides the fact that EPS decreases concentration of antibiotics, bacteria inside biofilm are characterized by a reduced rate of cell divisions, an increased expression of stress response genes, an occurrence of persistent cells, and exchange of resistance genes leading to a broader spread of tolerant biofilm-growing bacteria. For the treatment of biofilm-associated infections a high concentration of antibiotics is required that also increases toxicity toward human cells. Antimicrobial peptides are able to act on certain stages of biofilm formation and various molecular targets and are considered as promising candidates for the development of new antibiofilm agents. […] Bacterial biomass amount was evaluated using the standard crystal violet assay over a 24 h incubation period with each drug. […]
Masses of biofilms were evaluated by dying with 0.1% CV. […]
The ability of peptides to influence the formation of biofilms was evaluated by the method of two-fold serial dilutions in a liquid nutrient medium. […] Further, the extracts were transferred to a new plate and absorption was measured at 570 nm. […]

[6] = RP-HPLC retention time as measure of hydrophobicity; type: physicochemical; conditions: chromatographic, semipreparative RP-HPLC, C18 column, linear gradient 5 to 80% (v/v) acetonitrile in water with 0.1% TFA within 50 minutes; used as measure of hydrophobicity
Method: Table S1. Characteristics of the recombinant AMPs.
1 Mean Kyte–Doolittle hydrophobicity index (GRAVY) was calculated using the Expasy ProtParam tool. The maximum and minimum values of this index are +4.5 and -4.5 for poly-Ile and poly-Arg sequences, respectively. 2 Retention times were measured using semipreparative reversed-phase high-performance liquid chromatography (RP - HPLC) on a C18 column with a linear gradient from 5 to 80% ( v/v) acetonitrile in water containing 0.1% trifluoroacetic […]
acid (TFA) within 50 minutes. […]

[7] = test system: human red blood cells; type: cell-based
Method: Figure 4 (A) Hemolytic effect on human red blood cells after 2 h incubation (hemoglobin release assay). (B) Cytotoxicity toward transformed human embryonic kidney cells after 20 h incubation (MTT-assay). The positive control used was 0.1% Triton X-100 and sterile PBS as a negative control. Melittin was used as an additional positive control. The data are presented as the mean ± SD of three independent experiments.
The hemolytic activity of compounds was performed using human red blood cells (hRBS) of healthy donor. Fresh blood was centrifuged to separate the erythrocyte fraction for 15 min at 500 g and washed three times with cold phosphate-buffered saline (PBS) (pH 7.4), after which an 8% (v/v) suspension of erythrocytes in PBS was prepared. Then, 50 µL of erythrocyte suspension was added to the test peptides, previously were dissolved in 50 µL of 0.1% BSA. The plate was incubated for 1.5 h at 37 °C and 950 rpm on the plate thermoshaker. After incubation, the plates were centrifuged for 15 min at 1000 g to settle intact erythrocytes. Next, aliquots of the supernatant were transferred to another plate to measure the amount of hemoglobin release by the absorbance of the solution at 405 nm. As “zero lysis” we used the supernatant obtained after centrifugation of erythrocytes incubated in a PBS solution without the addition of a peptide. As “100% lysis”, we used the supernatant obtained after centrifugation of erythrocytes incubated in a 0.1% Triton X-100, causing their complete lysis. The assays were conducted three times. The quantitative data were presented as an average means with standard deviations. Hemolysis(%)=OD405(compound)−OD405(zerolysis)/OD405(100%lysis)−OD405(zerolysis)×100%

[8] = test system: Gram-negative bacteria; experiment: Geometric mean of MICs, Gram-negative panel; type: cell-based; conditions: geometric mean (GM) of MICs against the 14 Gram-negative strains of Figure 2
Method: as §1

[9] = test system: E. coli MDR Cl 1057; experiment: Resistance induction by serial passages; type: cell-based; conditions: E. coli MDR Cl 1057, 0.9% NaCl-enriched Mueller–Hinton medium
Method: One of them involves a series passage with suspension of a test strain and liquid medium containing an antibacterial agent at concentrations near the MIC, which progressively increases during the experiment until resistant mutants are enriched. Bacteria that grew at the highest concentration of drug are used in the final step of the test that determines the final MIC value [18].
The ability of peptides to induce bacterial resistance was assessed by the method of two-fold serial dilutions; this test was repeated every day. […] Next, on the second day, 2 μL of the bacterial suspension was taken from the well containing the sub-inhibitory concentration of the drug as close as possible to the MIC and diluted with 1 mL of the same media.

[10] = 25% human serum in PBS (pH 7.4) from healthy donor; conditions: 37 °C, up to 24 h
[11] = in vitro; conditions: male, human, 25% fresh human serum, pH 7.4
Method: After incubation, serum proteins were selectively precipitated from the mixture by adding 10% TFA in the presence of 3 M urea. […] Two independent experiments in duplicate were performed for each peptide.

[12] = test system: E. coli ATCC 25922; type: cell-based; conditions: MHB + 0.9% NaCl, 0.1% BSA, 24 h, 37 °C; median of three independent experiments
[13] = test system: E. coli ML-35p
Method: Initially, antimicrobial activity of abarenicin and UuBRI-21 was evaluated against the reference strain of E. coli (ML-35p) under various conditions (Table 1). Minimal inhibitory concentrations (MICs) were determined via two-fold serial dilutions in 96-well polystyrene plates. Serial dilutions were made in 0.1% bovine serum albumin (BSA) to minimize the absorption of peptides on the surface of plate wells. Mueller–Hinton broth (MHB) supplemented with 0.9% NaCl was used as the standardized medium.
as §1, with “Bacterial” for “The antimicrobial activity of the peptides was determined via the method of two-fold serial dilutions in sterile 96-well flat-bottom polystyrene microplates (Eppendorf #0030730011) in Mueller–Hinton broth (MHB, Sigma, Kawasaki, Kanagawa, Japan) supplemented with 0.9% NaCl. Bacterial”

| Molecule | Residual viability of bacteria in mature biofilm [1] | Therapeutic efficacy (survival) after one-week experiment [2] [%] | Minimum inhibitory concentration (MIC): Gram-positive Geometric mean [3] [µM] | Bacterial burden in mice blood (in words) [4] | Reduction of the CFU level in peritoneal fluid (PF) [4] | Efficacy in the neutropenic peritonitis model (in words) ([4]; single i.v. dose of 10 mg/kg, E. coli 3421/E19) | Inhibition of biofilm formation (in words) [5] | RP-HPLC Retention Time [6] [min] | Hemolytic activity (in words) [7] | Minimum inhibitory concentration (MIC): Gram-negative Geometric mean [8] [µM] | Initial MIC in resistance induction experiment [9] [µM] | cleaved bond [10] | remaining at 2 h, 0.12 mg/mL [11] [%] | Minimum inhibitory concentration (MIC): E. coli ATCC 25922 [12] [µM] | Fold reduction of antibacterial activity in the presence of serum ([13]; MHB + 0.9% NaCl with 25% FBS versus without) [fold] | Minimum Inhibitory Concentration, MHB + 0.9% NaCl + 25% FBS ([13]; Table 1, medium with 25% fetal bovine serum) [µM] | Minimum Inhibitory Concentration, MHB + 0.9% NaCl ([13]; Table 1, without FBS, dilutions in 0.1% BSA) [µM] |
| --- | --- | --- | --- | --- | --- | --- | --- | --- | --- | --- | --- | --- | --- | --- | --- | --- | --- |
| CC[C@H](C)[C@@H]1NC(=O)[C@H](CCCNC(=N)N)NC(=O)[C@H](C(C)C)NC(=O)CNC(=O)[C@H](CC(N)=O)NC(=O)[C@H](CCCNC(=N)N)NC(=O)[C@H](CCCNC(=N)N)NC(=O)[C@H](C)NC(=O)[C@@H]2CSSC[C@H](NC1=O)C(=O)N[C@@H](Cc1ccc(O)cc1)C(=O)N[C@@H](CCCNC(=N)N)C(=O)N[C@@H](CCCNC(=N)N)C(=O)N[C@H](C(=O)N[C@@H](CC(N)=O)C(=O)O)CSSC[C@H](NC(=O)[C@H](Cc1ccc(O)cc1)NC(=O)CN)C(=O)N[C@@H](Cc1ccccc1)C(=O)N[C@@H]([C@@H](C)O)C(=O)N[C@@H](C)C(=O)N2 [Ap9] | about 20% | 100 | 3.17 (≈ 7.86 µg/mL) | complete reduction | ~ 5 log | effective | more effective in biofilm prevention at sub-inhibitory concentration | 25.37 | insignificant toxicity toward human erythrocytes | 0.26 (≈ 0.645 µg/mL) |  |  |  |  |  |  |  |
| polymyxin B [reference compound] | about 20% |  |  | complete reduction | ~ 5 log |  | modest inhibition of biofilm |  |  |  | 0.125 |  |  |  |  |  |  |
| GYCFTACYLRNGVRICYRRCN |  |  |  |  |  |  |  |  |  |  |  | glycine-Y, major |  |  |  |  |  |
| CC[C@H](C)[C@@H]1NC(=O)[C@H](CCCNC(=N)N)NC(=O)[C@H](C(C)C)NC(=O)CNC(=O)[C@H](CC(N)=O)NC(=O)[C@H](CCCNC(=N)N)NC(=O)[C@H](CC(C)C)NC(=O)[C@H](Cc2ccc(O)cc2)NC(=O)[C@@H]2CSSC[C@H](NC1=O)C(=O)N[C@@H](Cc1ccc(O)cc1)C(=O)N[C@@H](CCCNC(=N)N)C(=O)N[C@@H](CCCNC(=N)N)C(=O)N[C@H](C(=O)N[C@@H](CC(N)=O)C(=O)O)CSSC[C@H](NC(=O)[C@H](Cc1ccc(O)cc1)NC(=O)CN)C(=O)N[C@@H](Cc1ccccc1)C(=O)N[C@@H]([C@@H](C)O)C(=O)N[C@@H](C)C(=O)N2 [Abarenicin] (H-GYCFTACYLRNGVRICYRRCN-OH; disulfide 3-20, 7-16) |  |  | 2.52 (≈ 6.37 µg/mL) |  |  |  |  | 25.77 | moderate hemolytic activity | 0.45 (≈ 1.14 µg/mL) |  |  | > 90 | 0.25 | 4 | 1 | 0.25 |
